In patent US20100048611A1, “TETRAHYDROPYRROLOPYRIDINE, TETRAHYDROPYRAZOLOPYRIDINE, TETRAHYDRO-IMIDAZOPYRIDINE AND TETRAHYDROTRIAZOLOPYRIDINE DERIVATIVES AND USE THEREOF” (Bayer Healthcare AG, priority 2006, published 2010):

Target: human factor Xa (FXa) (Homo sapiens, UniProt P00742)
Test: Determination of the factor Xa inhibition (chromogenic substrate)
Type: biochemical
Conditions: chromogenic substrate Pefachrome FXa, 25° C., extinction at 405 nm
Description: a.1) Determination of the Factor Xa Inhibition:
The enzymatic activity of human factor Xa (FXa) is measured using the conversion of a chromogenic substrate specific for FXa. Factor Xa cleaves p-nitroaniline from the chromogenic substrate. The determinations are carried out in microtitre plates as follows:
The test substances, in various concentrations, are dissolved in DMSO and incubated for 10 minutes at 25° C. with human FXa ([…] dissolved in 50 mmol of Tris buffer [C,C,C-tris(hydroxymethyl)aminomethane], 150 mmol/l of NaCl, 0.1% BSA [bovine serum albumin], pH=8.3). Pure DMSO is used as control. The chromogenic substrate (150 μmol/l of Pefachrome® FXa from Pentapharm) is then added. After an incubation time of 20 minutes at 25° C., the extinction at 405 nm is determined.

Chain of human factor Xa (FXa) (P00742 235-488 limits assumed): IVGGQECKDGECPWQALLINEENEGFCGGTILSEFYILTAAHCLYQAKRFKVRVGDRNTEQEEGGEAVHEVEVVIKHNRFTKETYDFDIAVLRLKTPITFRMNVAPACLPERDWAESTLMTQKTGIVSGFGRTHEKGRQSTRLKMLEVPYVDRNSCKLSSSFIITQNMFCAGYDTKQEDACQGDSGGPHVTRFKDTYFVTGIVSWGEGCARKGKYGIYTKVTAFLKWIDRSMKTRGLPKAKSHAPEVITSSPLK
Chain of human factor Xa (FXa) (P00742 41-179 partner limits assumed): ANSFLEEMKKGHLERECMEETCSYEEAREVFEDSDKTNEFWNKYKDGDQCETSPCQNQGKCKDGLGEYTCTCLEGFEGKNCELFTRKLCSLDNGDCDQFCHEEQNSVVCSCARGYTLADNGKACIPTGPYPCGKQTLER

COc1ccc(-n2nc(C(N)=O)c3c2C(=O)N(c2ccc(N4CCOC4=N)cc2)CC3)cc1 [Example 1, 6-[4-(2-Imino-1,3-oxazolidin-3-yl)phenyl]-1-(4-methoxyphenyl)-7-oxo-4,5,6,7-tetrahydro-1H-pyrazolo[3,4-c]pyridine-3-carboxamide methanesulphonate] gave an IC50 of 0.8 nM.
